Key:
[1] = target: Serotonin receptor 2a and 2c (5HT2A and 5HT2C) (Rattus norvegicus) (UniProt P08909+P14842)
Description: Hill coefficient of compound was determined

[2] = target: T1, Serotonin receptor 2a and 2c (5HT2A and 5HT2C) (Rattus norvegicus, UniProt P08909+P14842); test: Binding affinity at 5-hydroxytryptamine 2 receptor determined using [125I]- DOI as radioligand in rat frontal cortex; assay type: tissue-based
[3] = target: T1, Serotonin receptor 2a and 2c (5HT2A and 5HT2C); test: Binding affinity at [3H]DOB labeled sites of 5-hydroxytryptamine 2 receptor determined using [125I]- DOI as radioligand in rat frontal cortex; assay type: tissue-based
[4] = target: T1, Serotonin receptor 2a and 2c (5HT2A and 5HT2C); test: Binding affinity at [3H]KET labeled sites of 5-hydroxytryptamine 2 receptor determined using [125I]- DOI as radioligand in rat frontal cortex; assay type: tissue-based
[5] = target: T1, Serotonin receptor 2a and 2c (5HT2A and 5HT2C); test: Binding affinity at [3H]DOB labeled sites of 5-hydroxytryptamine 2 receptor was determined using [125I]- DOI as radioligand in rat frontal cortex; assay type: tissue-based
[6] = target: T1, Serotonin receptor 2a and 2c (5HT2A and 5HT2C); test: Binding affinity at [3H]KET labeled sites of 5-hydroxytryptamine 2 receptor was determined using [125I]- DOI as radioligand in rat frontal cortex; assay type: tissue-based

Serotonin receptor 2a and 2c (5HT2A and 5HT2C) (Rattus norvegicus), sequence (P08909 whole entry, looked up): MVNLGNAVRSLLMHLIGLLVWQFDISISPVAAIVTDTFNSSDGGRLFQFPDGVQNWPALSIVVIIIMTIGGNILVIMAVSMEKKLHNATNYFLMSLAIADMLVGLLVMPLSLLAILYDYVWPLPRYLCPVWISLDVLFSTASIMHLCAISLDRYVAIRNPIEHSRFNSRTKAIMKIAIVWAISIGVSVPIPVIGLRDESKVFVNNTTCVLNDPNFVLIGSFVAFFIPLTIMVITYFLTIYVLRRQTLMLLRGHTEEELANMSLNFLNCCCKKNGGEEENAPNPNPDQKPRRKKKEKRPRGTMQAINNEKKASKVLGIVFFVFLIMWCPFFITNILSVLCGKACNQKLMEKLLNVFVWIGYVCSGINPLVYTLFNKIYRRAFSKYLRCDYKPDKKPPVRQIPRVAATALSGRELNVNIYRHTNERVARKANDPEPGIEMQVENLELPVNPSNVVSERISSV
Serotonin receptor 2a and 2c (5HT2A and 5HT2C) (Rattus norvegicus), sequence (P14842 whole entry, looked up): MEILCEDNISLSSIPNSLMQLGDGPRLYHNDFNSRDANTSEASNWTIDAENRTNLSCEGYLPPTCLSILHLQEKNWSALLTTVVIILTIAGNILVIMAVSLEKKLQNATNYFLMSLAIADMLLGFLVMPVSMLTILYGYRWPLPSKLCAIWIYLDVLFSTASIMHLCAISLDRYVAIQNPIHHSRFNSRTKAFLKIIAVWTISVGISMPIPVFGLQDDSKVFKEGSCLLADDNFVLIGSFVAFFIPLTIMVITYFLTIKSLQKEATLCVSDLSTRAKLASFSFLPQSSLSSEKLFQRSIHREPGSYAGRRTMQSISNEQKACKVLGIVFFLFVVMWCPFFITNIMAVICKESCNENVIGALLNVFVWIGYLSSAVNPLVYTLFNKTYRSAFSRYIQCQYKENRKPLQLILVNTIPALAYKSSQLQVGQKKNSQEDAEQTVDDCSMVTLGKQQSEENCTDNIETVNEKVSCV

| Compound | nH [1] | Ki [2] | also measured |
| --- | --- | --- | --- |
| COc1cc(C[C@@H](C)N)c(OC)cc1Br | 0.84 |  |  |
| NCCc1c[nH]c2ccc(O)cc12 | 0.9 |  |  |
| O=C(CCCN1CCC2(CC1)C(=O)NCN2c1ccccc1)c1ccc(F)cc1 | 0.75 |  |  |
| O=C(c1ccc(F)cc1)C1CCN(CCn2c(=O)[nH]c3ccccc3c2=O)CC1 | 0.87 |  |  |
| COc1cc(CC(C)N)c(OC)cc1I (racemic) | 0.89 | 2.8 nM | Ki [3]: 0.7 nM; Ki [4]: 20 nM |
| CN(C)CCCSc1ccccc1NC(=O)/C=C/c1ccccc1 [CINANSERIN] | 0.76 | 5 nM | Ki [5]: 3.8 nM; Ki [6]: 4.5 nM |

Source: ChEMBL document CHEMBL1123961 (J Med Chem, 1988)
